Laboratory results as given in ChEMBL document CHEMBL1148796 (J Med Chem, 2007).

Legend:
[1] = Cytotoxicity against MT4 cells by MTT assay; format: cell-based; settings: human, read-out: TC50 (the source's name)
[2] = test system: Human immunodeficiency virus 1; experiment: Antiretroviral activity against wild type HIV1 in MT4 cells by MTT assay; format: functional; settings: Human immunodeficiency virus 1, MT4; read-out: ED50 (the source's name)
[3] = Selectivity index, ratio of TC50 for MT4 cells to ED50 for HIV1; format: functional
[4] = Selectivity index, ratio of TC50 for C8166 cells to ED50 for HIV1; format: functional
[5] = test system: Human immunodeficiency virus 1; experiment: Antiviral activity against HIV1 RT Y181C mutant in MT4 cells by MTT assay; format: functional; settings: Human immunodeficiency virus 1, MT4; read-out: ED50 (the source's name)
[6] = test system: Human immunodeficiency virus 1; experiment: Antiviral activity against HIV1 3B in MT4 cells by MTT assay; format: functional; settings: Human immunodeficiency virus 1, 3B, read-out: ED50 (the source's name)
[7] = test system: Human immunodeficiency virus 1; experiment: Antiretroviral activity against HIV1 wild type in C8166 cells by MTT assay; format: functional; settings: Human immunodeficiency virus 1, C8166; read-out: ED50 (the source's name)
[8] = test system: Human immunodeficiency virus 1; experiment: Antiviral activity against HIV1 RT K103N-Y181C mutant in MT4 cells by MTT assay; format: functional; settings: Human immunodeficiency virus 1, MT4; read-out: ED50 (the source's name)
[9] = Cytotoxicity against mock-infected C8166 cells by MTT assay; format: cell-based; settings: human, read-out: TC50 (the source's name)
[10] = Cytotoxicity against lymphocytes; format: cell-based, Lymphocyte; settings: human, read-out: TC50 (the source's name)
[11] = test system: Human immunodeficiency virus 1; experiment: Antiviral activity against HIV1 RT AB1 mutant in lymphocytes assessed as reduction of p24 antigen production; format: functional; settings: read-out: ED50 (the source's name)
[12] = test system: Human immunodeficiency virus 1; experiment: Antiviral activity against HIV1 RT 112 mutant in lymphocytes assessed as reduction of p24 antigen production; format: functional; settings: read-out: ED50 (the source's name)
[13] = test system: Human immunodeficiency virus 1; experiment: Antiviral activity against wild type HIV1 3B in lymphocytes assessed as reduction of p24 antigen production; format: functional; settings: Human immunodeficiency virus 1, 3B; read-out: ED50 (the source's name)
[14] = Selectivity index, ratio of TC50 for lymphocytes to ED50 for HIV1 3B; format: functional, Homo sapiens
[15] = test system: Human immunodeficiency virus type 1 reverse transcriptase (Human immunodeficiency virus 1), Q72547 [Y181I]
[16] = test system: Human immunodeficiency virus 1; experiment: Antiretroviral activity against HIV1 3BBa-L in macrophages assessed as reduction of p24 antigen production; format: functional; settings: Human immunodeficiency virus 1, 3BBa-L; read-out: ED50 (the source's name)
[17] = Cytotoxicity against macrophages; format: cell-based, Macrophage; settings: human, read-out: TC50 (the source's name)
[18] = Selectivity index, ratio of TC50 for lymphocytes to ED50 for HIV1 RT 112 mutant; format: functional
[19] = Selectivity index, ratio of TC50 for macrophages to ED50 for HIV1 3BBa-L; format: functional
[20] = test system: Human immunodeficiency virus type 1 reverse transcriptase (Human immunodeficiency virus 1), Q72547 [L100I]
Description: Inhibition of HIV1 RT L100I mutant

[21] = Selectivity index, ratio of TC50 for lymphocytes to ED50 for HIV1 RT AB1 mutant; format: functional
[22] = test system: Human immunodeficiency virus type 1 reverse transcriptase (Human immunodeficiency virus 1), Q72547 [K103N]
Description: Inhibition of HIV1 RT K103N mutant

[23] = biological target: Human immunodeficiency virus type 1 reverse transcriptase (Human immunodeficiency virus 1) (UniProt Q72547)
Description: Inhibition of wild type HIV1 RT

Compound	CC50 [1] [µM]	EC50 [2] [µM]	Selectivity index [3]	Selectivity index [4]	EC50 [5] [µM]	EC50 [6] [µM]	EC50 [7] [µM]	EC50 [8] [µM]	CC50 [9] [µM]	further results
Cc1cc(C)cc(S(=O)(=O)c2c(C(N)=O)[nH]c3cc(F)c(F)cc23)c1	> 20	0.02	>1000	>667	0.4	0.02	0.03	> 20	> 20	–
NC(=O)c1[nH]c2ccc(F)c(F)c2c1S(=O)(=O)c1ccccc1	> 20	0.008	>2500	>2000	0.6	0.008	0.01	18	> 20	–
Cc1cc(C)cc(S(=O)(=O)c2c(C(N)=O)[nH]c3cc(F)c(Cl)cc23)c1	> 20	0.012	>1667	>2000	0.05	0.012	0.01	> 20	> 20	–
O=C1Nc2ccc(Cl)cc2[C@@](C#CC2CC2)(C(F)(F)F)O1 [EFAVIRENZ]	–	–	–	–	0.01	–	–	0.2	–	CC50 [10]: > 20 µM; EC50 [11]: > 20 µM; EC50 [12]: > 20 µM; EC50 [13]: 0.007 µM
Cc1cc(C)cc(S(=O)(=O)c2c(C(N)=O)[nH]c3ccc(F)c(Cl)c23)c1	> 20	0.008	>2500	>2222	2.2	0.008	0.009	> 20	> 20	–
NC(=O)c1[nH]c2cc(F)c(F)cc2c1S(=O)(=O)c1ccccc1	> 20	0.016	>1250	>1000	8.2	0.016	0.02	> 20	> 20	–
Cc1cc(C)cc(S(=O)(=O)c2c(C(N)=O)[nH]c3c(Cl)cc(Cl)cc23)c1	> 20	0.021	>952	>1667	4.2	0.021	0.012	> 20	> 20	–
NC(=O)c1[nH]c2cc(Cl)c(Cl)cc2c1S(=O)(=O)c1ccccc1	> 20	0.08	>250	>200	1.7	0.08	0.1	> 20	> 20	–
Cc1cc(C)cc(S(=O)(=O)c2c(C(N)=O)[nH]c3cc(Cl)c(Cl)cc23)c1	> 20	0.01	>2000	>1333	1	0.01	0.015	> 20	> 20	–
Cc1cc(C)cc(S(=O)(=O)c2c(C(N)=O)[nH]c3ccc(F)c(F)c23)c1	> 20	0.001	>20000	>6667	0.05	0.001	0.003	1.2	> 20	Selectivity index [14]: >1000; CC50 [10]: > 20 µM; ID50 [15]: 2.05 µM; EC50 [11]: 0.084 µM; EC50 [16]: 0.023 µM; CC50 [17]: > 20 µM; Selectivity index [18]: >154; EC50 [12]: 0.13 µM; Selectivity index [19]: >870; EC50 [13]: 0.02 µM; ID50 [20]: 0.09 µM; Selectivity index [21]: >238; ID50 [22]: 1 µM; ID50 [23]: 0.0017 µM
Cc1ccnc2c1NC(=O)c1cccnc1N2C1CC1 [NEVIRAPINE]	–	–	–	–	14	0.05	–	> 20	–	Selectivity index [14]: >222; CC50 [10]: > 20 µM; ID50 [15]: > 20 µM; EC50 [11]: > 20 µM; EC50 [12]: > 20 µM; EC50 [13]: 0.09 µM; ID50 [20]: 9 µM; ID50 [22]: 7 µM; ID50 [23]: 0.4 µM
Cc1cc(C)cc(S(=O)(=O)c2c(C(N)=O)[nH]c3c(F)cc(F)cc23)c1	> 20	0.007	>2857	>800	1.5	0.007	0.025	> 20	> 20	–
Cc1cc(C)cc(S(=O)(=O)c2c(C(N)=O)[nH]c3cc(Cl)c(F)cc23)c1	18	0.05	360	>400	0.7	0.05	0.05	12	> 20	–
Cc1cc(C)cc(S(=O)(=O)c2c(C(N)=O)[nH]c3ccc(Cl)c(F)c23)c1	> 20	0.0005	>40000	>25000	0.004	0.0005	0.0008	0.3	> 20	Selectivity index [14]: >2500; CC50 [10]: > 20 µM; ID50 [15]: 0.029 µM; EC50 [11]: 0.012 µM; EC50 [16]: 0.01 µM; CC50 [17]: > 20 µM; Selectivity index [18]: >2000; EC50 [12]: 0.01 µM; Selectivity index [19]: >2000; EC50 [13]: 0.008 µM; ID50 [20]: 0.002 µM; Selectivity index [21]: >1667; ID50 [22]: 0.006 µM; ID50 [23]: 0.003 µM
